Format in all cases: cell-based
For experiment [1], the system named is mCherry-FKBP-^FIREtag / TOM20-^FIREmate / FRB-ECFP-Giantin. As to the kind of experiment: Orthogonality with FRB-FKBP-rapamycin CIP system, confocal microscopy, HeLa cells. The note with it: simultaneous addition of 10 μM HBR-2,5DM and 500 nM rapamycin. The method, then:
FIG. 12A is a representation of the experimental design wherein HeLa cells co-expressing mCherry-FKBP-^FIREtag, TOM20-^FIREmate and FRB-ECFP-Giantin were treated with 10 μM of match (i.e., HBR-2,5DM) and 500 nM rapamycin, and imaged by time-lapse confocal microscopy. FIG. 12B is a set of representative confocal micrographs of cells before and after addition of HBR-2,5DM (match1) and rapamycin (rap) (mCherry: ex/em 561/606-675 nm; FIRE: ex/em 488/508-570 nm; ECFP: ex/em 445/455-499 nm). Scale bars are 20 μm.
The confocal micrographs were acquired on a Zeiss LSM 980 Laser Scanning Microscope equipped with a plan apochromat 63x/1.4 NA oil immersion objective. ZEN software was used to collect the data. The images were analyzed using Icy (2.4.0.0) and Fiji (Image J). In short, to track fluorescence signal in a specific organelle, a ROI (region of interest) was determined by masking the signal in the ECFP (Enhanced Cyan Fluorescent Protein) channel with the plug-in HK-means with the following parameters: intensity class equals 100, minimum object size (pixels or px) equals 500, maximum object size (px) equals 1500-3000. The signal intensity of the ROI was tracked over time for each channel by using plug-in Active Contours. The background signal was subtracted. Data were processed using GraphPad Prism v9.3.0. […]

Experiment [2] concerns the target T1, mCherry-^FIREtag / ^FIREmate-ECFP-Giantin (Halorhodospira halophila, UniProt P16113, A30V/C69G/D97P/F96I, form not given/G21E/G25R/K17N/M100R/M109L/Q41L/Q99S/S72T/T101G/V83A/Y94W/Y98T).
T1 construct: FIREmate-ECFP-Giantin(3131-3259) and mCherry-FIREtag in HeLa cells
T1 sequence (P16113 1-114 A30V/C69G/D97P/F96I/G21E/G25R/K17N/M100R/M109L/Q41L/Q99S/S72T/T101G/V83A/Y94W/Y98T): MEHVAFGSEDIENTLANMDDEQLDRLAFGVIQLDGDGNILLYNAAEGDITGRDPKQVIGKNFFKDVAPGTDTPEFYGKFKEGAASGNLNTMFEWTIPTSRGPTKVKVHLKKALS
As to the kind of experiment: Recruitment of cytoplasmic protein to the Golgi apparatus, HeLa cells. The note with it: 10 μM. The method, then: FIGS. 6A-E illustrate the recruitment of cytoplasmic proteins to the Golgi apparatus with the proximity inducing system described herein. FIG. 6A is a representation of the experimental design wherein HeLa cells co-expressing mCherry-^FIREtag and ^FIREmate-ECFP-Giantin were treated with 10 µM of match (either HBR-2,5DM or HMBR), and imaged by time-lapse confocal microscopy. FIGS. 6B-C are graphs showing the temporal evolution of the FIRE signal detected upon addition at 0 min of HBR-2,5DM (match1-6B) or HMBR (match2-6C). Data represents the mean values±SD of 10 cells from n=3 independent experiments (6B, D), or of 12 cells from n=3 independent experiments (6C, E). FIGS. 6D-E are sets of representative confocal micrographs of cells before (0 min) and after (5 min) addition of HBR-2,5DM (match1-6D) or HMBR (match2-6E) (mCherry: ex/em 561/606-675 nm; FIRE: ex/em 488/508-570 nm; ECFP: ex/em 445/455-499 nm). […] Scale bars are 20 μm.
(§1) The confocal micrographs were acquired on a Zeiss LSM 980 Laser Scanning Microscope equipped with a plan apochromat 63x/1.4 NA oil immersion objective. ZEN software was used to collect the data. The images were analyzed using Icy (2.4.0.0) and Fiji (Image J). In short, to track fluorescence signal in a specific organelle, a ROI (region of interest) was determined by masking the signal in the ECFP (Enhanced Cyan Fluorescent Protein) channel with the plug-in HK-means with the following parameters: intensity class equals 100, minimum object size (pixels or px) equals 500, maximum object size (px) equals 1500-3000. The signal intensity of the ROI was tracked over time for each channel by using plug-in Active Contours. The background signal was subtracted. Data were processed using GraphPad Prism v9.3.0.
(§2) To further evaluate the scope of the proximity inducing system described herein and show its versatility, ^FIREmate was anchored at the membrane of various organelles or cellular structures so that ^FIREmate faced the cytosol. ^FIREmate was thus fused: • to the N-terminus of the transmembrane domain (amino acid residues at positions 3131-3259) of Giantin for location at the cis-medial rims of the Golgi apparatus (FIG. 6A), • to the N-terminus of the transmembrane domain (amino acid residues at positions 100-134) of the cytochrome b5 (Cb5) for location at the endoplasmic reticulum membrane (FIG. 7A), and • to the C-terminus of the Lyn11 inner membrane targeting sequence for location at the plasma membrane (FIG. 8A).
(§3) For each construct, an ECFP was inserted between ^FIREmate and the other protein domain/sequence to monitor the localization of the resulting fusion protein (blue fluorescence). Each fusion protein was co-expressed in mammalian cells (HeLa cells or HEK293 cells as indicated) together with mCherry-^FIREtag (red fluorescence). […]

Experiment [3] has as its target T2, mCherry-^FIREtag / ^FIREmate-ECFP-Cb5 (Halorhodospira halophila, UniProt P16113, A30V/C69G/D97P/F96I, form not given/G21E/G25R/K17N/M100R/M109L/Q41L/Q99S/S72T/T101G/V83A/Y94W/Y98T).
T2 construct: FIREmate-ECFP-Cb5(100-134) and mCherry-FIREtag in HeLa cells
T2 sequence (P16113 1-114 A30V/C69G/D97P/F96I/G21E/G25R/K17N/M100R/M109L/Q41L/Q99S/S72T/T101G/V83A/Y94W/Y98T): T1 sequence (P16113 1-114 A30V/C69G/D97P/F96I/G21E/G25R/K17N/M100R/M109L/Q41L/Q99S/S72T/T101G/V83A/Y94W/Y98T)
Kind of experiment: Recruitment of cytoplasmic protein to the endoplasmic reticulum, HeLa cells. The note with it: 10 μM. As to the method:
FIGS. 7A-E illustrate the recruitment of cytoplasmic proteins to the endoplasmic reticulum with the proximity inducing system described herein. FIG. 7A is a representation of the experimental design wherein HeLa cells co-expressing mCherry-^FIREtag and ^FIREmate-ECFP-Cb5 were treated with 10 μM of match (either HBR-2,5DM or HMBR), and imaged by time-lapse confocal microscopy. FIGS. 7B-C are graphs showing the temporal evolution of the FIRE signal detected upon addition at 0 min of HBR-2,5DM (match1-7C) or HMBR (match2-7D). Data represents the mean values±SD of 17 cells from n=3 independent experiments (7B, D), or of 18 cells from n=3 independent experiments (7C, E). FIGS. 7D-E are sets of representative confocal micrographs of cells before (0 min) and after (5 min) addition of HBR-2,5DM (match1-7D) or HMBR (match2-7E) (mCherry: ex/em 561/606-675 nm; FIRE: ex/em 488/508-570 nm; ECFP: ex/em 445/455-499 nm). […] Scale bars are 20 μm.
as §1, §2, §3

Experiment [4] has as its target T3, mCherry-^FIREtag / Lyn11-ECFP-^FIREmate (Halorhodospira halophila, UniProt P16113, A30V/C69G/D97P/F96I, form not given/G21E/G25R/K17N/M100R/M109L/Q41L/Q99S/S72T/T101G/V83A/Y94W/Y98T).
T3 construct: Lyn11-ECFP-FIREmate and mCherry-FIREtag in HEK293 cells
T3 sequence (P16113 1-114 A30V/C69G/D97P/F96I/G21E/G25R/K17N/M100R/M109L/Q41L/Q99S/S72T/T101G/V83A/Y94W/Y98T): T1 sequence (P16113 1-114 A30V/C69G/D97P/F96I/G21E/G25R/K17N/M100R/M109L/Q41L/Q99S/S72T/T101G/V83A/Y94W/Y98T)
Kind of experiment: Recruitment of cytoplasmic protein to the plasma membrane, HEK293 cells. The note with it: 10 μM. The method, then: FIGS. 8A-E illustrate the recruitment of cytoplasmic proteins to the plasma membrane with the proximity inducing system described herein. FIG. 8A is a representation of the experimental design wherein HEK293 cells co-expressing mCherry-^FIREtag and Lyn11-ECFP-^FIREmate were treated with 10 μM of match (either HBR-2,5DM or HMBR), and imaged by time-lapse confocal microscopy. FIGS. 8B-C are graphs showing the temporal evolution of the FIRE signal detected upon addition at 0 min of HBR-2,5DM (match1-8B) or HMBR (match2-8C). Data represents the mean values±SD of 22 cells from n=3 independent experiments (8B, D), or of 30 cells from n=3 independent experiments (8C, E). FIGS. 8D-E are sets of representative confocal micrographs of cells before (0 min) and after (5 min) addition of HBR-2,5DM (match1-8D) or HMBR (match2-8E) (mCherry: ex/em 561/606-675 nm; FIRE: ex/em 488/508-570 nm; ECFP: ex/em 445/455-499 nm). […] Scale bars are 20 μm.
as §1, §2, §3

The target of experiment [5] is T4, ^FIREmate and ^FIREtag (fused to FRB and FKBP) (Halorhodospira halophila, UniProt P16113, A30V/C69G/D97P/F96I, form not given/G21E/G25R/K17N/M100R/M109L/Q41L/Q99S/S72T/T101G/V83A/Y94W/Y98T).
T4 sequence (P16113 1-114 A30V/C69G/D97P/F96I/G21E/G25R/K17N/M100R/M109L/Q41L/Q99S/S72T/T101G/V83A/Y94W/Y98T): T1 sequence (P16113 1-114 A30V/C69G/D97P/F96I/G21E/G25R/K17N/M100R/M109L/Q41L/Q99S/S72T/T101G/V83A/Y94W/Y98T)
Kind of experiment: Flow cytometry of fluorescent ternary assembly formation in HEK293T cells co-expressing FKBP-^FIREtag and FRB-^FIREmate. As to the method:
FIGS. 2A and 2B are graphs illustrating the fluorogen-dependent interaction between the two polypeptides ^FIREmate and ^FIREtag. The graphs show the normalized average fluorescence detected from about 50,000 HEK293T cells co-expressing the FK506-binding protein (FKBP) fused to ^FIREtag and the FKBP-rapamycin-binding domain of mammalian target of rapamycin (FRB) fused to ^FIREmate treated without (triangles) or with (squares) 500 nM of rapamycin, and with 1, 5, 10, 25 or 50 μM of HBR-2,5DM (2A) or HMBR (2B). Data represent the mean values±SD of three independent experiments.
The formation of a fluorescent ternary assembly was assessed by flow cytometry in HEK293 cells expressing ^FIREmate and ^FIREtag fused to the C-termini of FKBP (FK506-binding protein) and FRB (FKBP-rapamycin-binding domain of mammalian target of rapamycin), […]. FKBP and FRB are able to dimerize upon addition of rapamycin. Treatment of the HEK293 cells with rapamycin is thus expected to induce the dimerization of FKBP and FRB, and subsequently to induce proximity between ^FIREtag and ^FIREmate.
(A flow cytometer gives signals particle by particle.)

In experiment [6] the target is T1, mCherry-^FIREtag / ^FIREmate-ECFP-Giantin. Kind of experiment: Induction of proximity with a non-fluorogenic chromophore, HeLa cells. The note with it: 10 μM. As to the method:
HeLa cells co-expressing mCherry-^FIREtag and ^FIREmate-ECFP-Giantin were treated with 10 μM HBR-2,5DM (match1), washed with HBR-2,5DM-free medium and then treated with 10 μM HBIR-3M. Cells were imaged by time-lapse spinning-disk confocal microscopy. FIGS. 9A-D are sets of representative confocal micrographs of untreated cells (9A), cells after addition of HBR-2,5DM (match1) (9B), cells after washout of HBR-2,5DM (match1) (9C), and cells after addition of HBIR-3M (9D). (mCherry: ex/em 561/606-675 nm; FIRE: ex/em 488/508-570 nm). Scale bars are 10 μm.
Next, experiments were carried out to investigate whether other chromophores could act as molecular inducer of proximity and provide new properties. In particular, non-fluorogenic chromophores, such as HBIR-3M, were investigated. […] The fusion proteins mCherry-^FIREtag (red fluorescence) and ^FIREmate-ECFP-Giantin (blue fluorescence) were co-expressed in HeLa cells as described above.

This note sets out measurements from patent US20260309717A1, “PROXIMITY INDUCING SYSTEM AND USES THEREOF” (SORBONNE UNIVERSITE, priority 2022, published 2026).

Molecules are shown by their SMILES.

For `CO[C@H]1C[C@@H]2CC[C@@H](C)[C@@](O)(O2)C(=O)C(=O)N2CCCC[C@H]2C(=O)O[C@H]([C@H](C)C[C@@H]2CC[C@@H](O)[C@H](OC)C2)CC(=O)[C@H](C)/C=C(\C)[C@@H](O)[C@@H](OC)C(=O)[C@H](C)C[C@H](C)/C=C/C=C/C=C/1C` [rapamycin, reference compound], the “translocation of mCherry-FKBP-^FIREtag” value in experiment [1] is “triggered the translocation of mCherry-FKBP-^FIREtag to the Golgi apparatus and to the mitochondria”.

On to `Cc1cc(/C=C2\SC(=S)NC2=O)ccc1O` [HMBR, (Z)-5-(4-hydroxy-3-methylbenzylidene)-2-thioxo-1,3-thiazolidin-4-one], for which, in experiment [2], the “FIRE signal at the Golgi apparatus” value is recorded as “simultaneous appearance of green fluorescence” and the “translocation of mCherry-^FIREtag to the Golgi apparatus” value is recorded as “rapid translocation of mCherry-^FIREtag to the organelle”. In addition, in experiment [3], the “FIRE signal at the endoplasmic reticulum” value is recorded as “simultaneous appearance of green fluorescence” and the “translocation of mCherry-^FIREtag to the endoplasmic reticulum” value was “rapid translocation of mCherry-^FIREtag to the organelle”. Also, in experiment [4], the “FIRE signal at the plasma membrane” value was “simultaneous appearance of green fluorescence” and the “translocation of mCherry-^FIREtag to the plasma membrane” value was “rapid translocation of mCherry-^FIREtag to the organelle”. Moreover, the “dimerization of FKBP and FRB (induced proximity)” value in experiment [5] (absence of rapamycin) is “able to induce the dimerization of FKBP and FRB”. The “formation of a ternary fluorescent assembly” value in experiment [5] (fluorogen 1, 5, 10, 25 or 50 μM, HEK293 cells) is recorded as “induced the formation of a ternary fluorescent assembly at all tested fluorogen concentrations”. Also, the “dependence of ternary fluorescent assembly formation on rapamycin (initial proximity)” value in experiment [5] (with or without 500 nM rapamycin, fluorogen 1-50 μM) is listed as “regardless of the presence or absence of rapamycin”.

As for `Cc1cc(/C=C2\SC(=O)NC2=S)ccc1O` [HBIR-3M, (Z)-5-(4-hydroxy-3-methylbenzylidene)-4-thioxo-1,3-thiazolidin-2-one], the “assembly with ^FIREtag and ^FIREmate (tightness, fluorescence)” value in experiment [6] is on record as “very tight non-fluorescent ‘invisible’ assembly”. For the same compound, the “induction of proximity relative to HBR-2,5DM” value in experiment [6] (cycles of sequential addition and removal) is “as efficiently as HBR-2,5DM”.
